Experimental data: ChEMBL document CHEMBL1124430, “Dermorphin analogues carrying an increased positive net charge in their "message" domain display extremely high mu opioid receptor selectivity” (J Med Chem, 1989)
Square brackets hold non-standard residues; d marks the D form. Peptide text beside a SMILES is read from it. dNle = CCCC[C@@H](N)C(=O)O; dNva = CCC[C@@H](N)C(=O)O; Orn = NCCC[C@H](N)C(=O)O

Assays:
[1] = species: Cavia porcellus; assay: Ke value for naloxon as antagonist (compound) was measured by using Guinea pig ileum assay.; format: functional
[2] = species: Cavia porcellus; assay: Concentration of compound to inhibit 50% (IC50) electrically evoked contractions was tested in Guinea pig ileum(GPI) assay.; format: functional
[3] = species: Cavia porcellus; assay: The relative potency of compound was measured by comparing the potency of compound to the [Leu]enkephalin in Guinea pig ileum(GPI) assay.; format: functional
[4] = species: Mus musculus; assay: The relative potency of compound was measured by comparing the potency of compound to the [Leu]enkephalin in Mouse vas deferens (MVD) assay.; format: functional
[5] = species: Mus musculus; assay: Concentration of compound to inhibit 50% (IC50) electrically evoked contractions was tested in Mouse vas deferens (MVD) assay.; format: functional
[6] = species: Mus musculus; assay: Ke value for naloxone as antagonist (compound) was measured by using Mouse vas deferens (MVD) assay.; format: functional
[7] = target: Delta-type opioid receptor (Rattus norvegicus) (UniProt P33533); assay: The relative potency of compound was measured against opioid receptor delta to that of [Leu]enkephalin in [3H]DSLET binding assay.
Delta-type opioid receptor (Rattus norvegicus), sequence (P33533 whole entry): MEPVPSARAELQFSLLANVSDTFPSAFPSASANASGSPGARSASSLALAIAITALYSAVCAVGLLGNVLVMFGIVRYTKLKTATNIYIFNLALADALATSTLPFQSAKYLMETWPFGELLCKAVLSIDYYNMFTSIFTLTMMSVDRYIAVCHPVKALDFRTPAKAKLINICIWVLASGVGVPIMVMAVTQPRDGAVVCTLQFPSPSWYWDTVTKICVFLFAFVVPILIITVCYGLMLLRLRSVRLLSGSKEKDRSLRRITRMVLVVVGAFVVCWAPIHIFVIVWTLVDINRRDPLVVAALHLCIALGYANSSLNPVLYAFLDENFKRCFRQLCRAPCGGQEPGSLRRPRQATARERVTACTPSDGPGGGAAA

[8] = target: Mu-type opioid receptor (Rattus norvegicus) (UniProt P33535); assay: The relative potency of compound was measured against Opioid receptor mu to that of [Leu]enkephalin in [3H]DAGO binding assay.
Mu-type opioid receptor (Rattus norvegicus), sequence (P33535 whole entry): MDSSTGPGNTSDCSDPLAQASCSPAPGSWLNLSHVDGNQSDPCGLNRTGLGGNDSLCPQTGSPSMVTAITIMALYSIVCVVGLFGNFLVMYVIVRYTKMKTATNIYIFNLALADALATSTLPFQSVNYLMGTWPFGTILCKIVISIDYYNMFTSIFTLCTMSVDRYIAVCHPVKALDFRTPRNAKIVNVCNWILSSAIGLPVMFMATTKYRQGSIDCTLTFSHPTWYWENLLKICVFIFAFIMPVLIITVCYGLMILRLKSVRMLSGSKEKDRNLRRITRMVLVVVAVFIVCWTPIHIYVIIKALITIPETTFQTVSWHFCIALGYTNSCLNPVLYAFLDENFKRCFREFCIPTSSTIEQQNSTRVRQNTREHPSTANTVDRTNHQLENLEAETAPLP

[9] = target: Mu-type opioid receptor (Rattus norvegicus) (UniProt P33535); assay: Ratio of binding affinity of opioid receptor mu and opioid receptor delta
[10] = Ratio of IC50 in Mouse vas deferens and Guinea pig ileum assay; format: functional
[11] = target: T1, Delta-type opioid receptor (Rattus norvegicus, UniProt P33533); assay: Binding affinity against Opioid receptor delta 1 by displacement of radioligand [3H]DSLET in rat brain membrane; format: cell membranes
T1 sequence (P33533 whole entry): as the sequence (P33533 whole entry) above

[12] = target: T2, Mu-type opioid receptor (Rattus norvegicus, UniProt P33535); assay: Binding affinity against Opioid receptor mu 1 by displacement of radioligand [3H]-DAGO in rat brain membrane; format: cell membranes
T2 sequence (P33535 whole entry): as the sequence (P33535 whole entry) above

[13] = target: Delta-type opioid receptor (Rattus norvegicus) (UniProt P33533); assay: The relative potency of compound was measured against Opioid receptor delta 1 to that of [Leu]enkephalin in [3H]DSLET binding assay.
[14] = target: Mu-type opioid receptor (Rattus norvegicus) (UniProt P33535); assay: The relative potency of compound was measured against Opioid receptor mu 1 to that of [Leu]enkephalin in [3H]DAGO binding assay.
[15] = target: T1, Delta-type opioid receptor; assay: Binding affinity against opioid receptor delta by displacement of radioligand [3H]DSLET in rat brain membrane; format: cell membranes
[16] = target: T2, Mu-type opioid receptor; assay: Binding affinity against opioid receptor mu by displacement of radioligand [3H]DAGO in rat brain membrane; format: cell membranes
[17] = species: Cavia porcellus; assay: The relative potency of compound was measured by comparing with [Leu]enkephalin in Guinea pig ileum(GPI) assay.; format: functional
[18] = species: Mus musculus; assay: The relative potency of compound was measured by comparing with [Leu]enkephalin in Mouse vas deferens (MVD) assay.; format: functional
[19] = target: T1, Delta-type opioid receptor; assay: Binding affinity against delta opioid receptor by displacement of radioligand [3H]DSLET in rat brain membrane; format: cell membranes
[20] = target: T2, Mu-type opioid receptor; assay: Binding affinity against mu opioid receptor by displacement of radioligand [3H]DAGO in rat brain membrane; format: cell membranes
[21] = target: T2, Mu-type opioid receptor; assay: Binding affinity against Opioid receptor mu 1 by displacement of radioligand [3H]DAGO in rat brain membrane; format: cell membranes
[22] = target: Delta-type opioid receptor (Rattus norvegicus) (UniProt P33533); assay: The relative potency of compound was measured against dOpioid receptor delta 1 to that of [Leu]enkephalin in [3H]DSLET binding assay.

SMILES | Ke [1] | IC50 [2] | Relative potency [3] | Relative potency [4] | IC50 [5] | Ke [6] | Ratio [10] | further results
NCCC[C@H](NC(=O)[C@H](Cc1ccccc1)NC(=O)[C@@H](CCCN=C(N)N)NC(=O)[C@@H](N)Cc1ccc(O)cc1)C(N)=O | 1.24 nM | 346 nM | 0.712 | 0.0105 | 1090 nM | 1.13 nM | 3.15 | Relative potency [7]: 0.000272; Relative potency [8]: 7.83; Ratio [9]: 7740
C[C@@H](NC(=O)[C@@H](N)Cc1ccc(O)cc1)C(=O)N[C@@H](Cc1ccccc1)C(=O)N[C@@H](Cc1ccccc1)C(=O)N[C@@H](CCCN=C(N)N)C(=O)N[C@@H](CCCN=C(N)N)C(N)=O | 0.57 nM | 21.6 nM | 11.4 | 0.00875 | 1300 nM | 1.27 nM | 60.2 | Ki [11]: 167 nM; Ki [12]: 2.57 nM; Relative potency [13]: 0.0152; Relative potency [14]: 3.67
N=C(N)NCCC[C@@H](NC(=O)C(N)Cc1ccc(O)cc1)C(=O)NC(Cc1ccccc1)C(=O)NCCC(N)C(=O)O (stereo not given in full) | – | – | – | – | – | – | – | Ki [15]: 12600 nM; Ki [16]: 5.78 nM
NCCCC[C@H](NC(=O)[C@H](Cc1ccccc1)NC(=O)[C@@H](CCCN=C(N)N)NC(=O)[C@@H](N)Cc1ccc(O)cc1)C(N)=O | 1.17 nM | 254 nM | – | – | 781 nM | 1.64 nM | – | –
NC(N)=NCCC[C@@H](NC(=O)C(N)Cc1ccc(O)cc1)C(=O)NC(Cc1ccccc1)C(=O)NCCC(N)C(=O)O (stereo not given in full) | 1.32 nM | 257 nM | 0.956 | 0.0173 | 659 nM | 1.01 nM | 2.56 | Relative potency [7]: 0.000202; Relative potency [8]: 1.63; Ratio [9]: 2180
C[C@@H](NC(=O)[C@@H](N)Cc1ccc(O)cc1)C(=O)N[C@@H](Cc1ccccc1)C(=O)N[C@@H](Cc1ccccc1)C(N)=O (H-Y[dA]FF-NH2) | 0.789 nM | 3.23 nM | – | – | 797 nM | 1.31 nM | 247 | Relative potency [17]: 76.2; Relative potency [18]: 0.0143; Relative potency [13]: 0.00405; Relative potency [14]: 6.15
NC(=O)[C@H](CCCN=C(N)N)NC(=O)[C@H](CCCN=C(N)N)NC(=O)[C@@H]1CC(=O)NCCC[C@@H](NC(=O)[C@@H](N)Cc2ccc(O)cc2)C(=O)N[C@@H](Cc2ccccc2)C(=O)N1 [listing 1 of 2 here] | 2.03 nM | – | 6.01 | 0.0153 | – | 2.02 nM | 18.2 | –
CCCC[C@@H](NC(=O)[C@@H](N)Cc1ccc(O)cc1)C(=O)N[C@@H](Cc1ccccc1)C(=O)N[C@@H](CCCN)C(N)=O (H-Y[dNle]F[Orn]-NH2) | 1.01 nM | 168 nM | – | – | 2290 nM | 1.5 nM | 13.6 | Relative potency [17]: 1.46; Relative potency [18]: 0.00498
NC(=O)[C@@H]1CC(=O)NCCC[C@@H](NC(=O)[C@@H](N)c2ccc(O)cc2)C(=O)N[C@@H](Cc2ccccc2)C(=O)N1 [listing 1 of 2 here] | – | 36.2 nM | – | – | 3880 nM | – | – | Ki [15]: 2220 nM; Ki [16]: 10.4 nM
NC(=O)[C@@H]1CC(=O)NCCC[C@@H](NC(=O)[C@@H](N)c2ccc(O)cc2)C(=O)N[C@@H](Cc2ccccc2)C(=O)N1 [listing 2 of 2 here] | 1.57 nM | – | 6.8 | 0.00294 | – | 2.11 nM | 107 | –
NC(=O)[C@H](CCCN=C(N)N)NC(=O)[C@H](CCCN=C(N)N)NC(=O)[C@@H]1CC(=O)NCCC[C@@H](NC(=O)[C@@H](N)Cc2ccc(O)cc2)C(=O)N[C@@H](Cc2ccccc2)C(=O)N1 [listing 2 of 2 here] | – | 40.9 nM | – | – | 745 nM | – | – | Ki [19]: 1880 nM; Ki [20]: 23.6 nM
CCC[C@@H](NC(=O)[C@@H](N)Cc1ccc(O)cc1)C(=O)N[C@@H](Cc1ccccc1)C(=O)N[C@@H](CCCN)C(N)=O (H-Y[dNva]F[Orn]-NH2) | 1.55 nM | 104 nM | – | – | 271 nM | 1.47 nM | 2.61 | Relative potency [17]: 2.36; Relative potency [18]: 0.042
CCCC[C@H](NC(=O)[C@H](Cc1ccccc1)NC(=O)[C@@H](CCC)NC(=O)[C@@H](N)Cc1ccc(O)cc1)C(N)=O | 1.72 nM | 30.6 nM | – | – | 153 nM | 1.27 nM | 5 | Relative potency [17]: 8.04; Relative potency [18]: 0.0745; Ki [11]: 181 nM; Ki [21]: 3.53 nM; Relative potency [22]: 0.014; Relative potency [14]: 2.67
C[C@@H](NC(=O)[C@@H](N)Cc1ccc(O)cc1)C(=O)NCC(=O)N(C)[C@@H](Cc1ccccc1)C(=O)NCCO [DAMGO] | – | 28.3 nM | – | – | 950 nM | – | – | Ki [11]: 1280 nM
NC(=O)[C@H]1CC(=O)NCCC[C@H](NC(=O)[C@@H](N)c2ccc(O)cc2)C(=O)N[C@@H](Cc2ccccc2)C(=O)N1 | – | – | – | – | – | – | – | Relative potency [7]: 0.00114; Relative potency [8]: 0.907; Ratio [9]: 213
